Marks after values point to notes of the source that are not given here.
Key:
[1] = test system: PREP-catalyzed α-synuclein dimerization in N2A cells; test: αSyn dimerization, protein fragment complementation assay (PCA) in N2A cells; assay type: cell-based; conditions: 10 μM, PCA, Figure S1A, % decrease
Protocol: The effect of the compounds on autophagy was determined by using GFP-LC3B-RFP expressing HEK-293 cells.[15],[34] The effect on αSyn dimerization was evaluated with a protein fragment complementation assay (PCA) by using N2A cells.[10],[15],[16] The increase in autophagic flux was measured as a decrease in GFP signal due to increased degradation of GFP-LC3B, and the decrease in αSyn dimerization was measured as a decrease in luminescence, both compared with DMSO (Table 1). […] Rapamycin and starvation are known to induce autophagy, lowering the fluorescence to 65–70% in our assays, and were therefore used as reference compounds for this. Test compounds were assayed at 10 μM concentration with 0.1% DMSO. A graphical representation of the mean values (± SEM) can be seen in the Supporting Information (Figure S1).
Measuring biological activity […]
α-Synuclein Dimerization. αSyn dimerization was assessed by using PCA, which was carried out as described previously in Kilpeläinen et al.1 In short, N2A cells were seeded on poly-L-lysine-coated 96-well plates (Isoplate™ white wall, PerkinElmer Life Sciences) at the density of 13 000 cells/well. 24 h post-plating, reporter plasmids were transfected with 100 ng of total plasmid DNA per well. N2A cells were transfected with 25 ng of both αSyn-Gluc1 and αSyn-Gluc2 and 50 ng mock-plasmid or non-tagged human PREP expression plasmid 50 ng/well. Lipofectamine 3000 (Thermo Fischer Scientific) was used as the transfection reagent. 100 µL normal growth medium was added to all wells at 24 h post-transfection. 48 hours post-transfection medium was changed to phenol red free DMEM without serum containing the tested compounds at 10 µM concentration, with 0,1% DMSO as vehicle control. Proteasome inhibitors lactacystin (AG Scientific) at 10 µM and MG-132 (Enzo Life Sciences) at 10 µM served as a positive control. The PCA signal was assessed by injecting 25 µL of native coelenterazine (Nanolight Technology) in phenol red free DMEM per well (final concentration 6 µM). The emitted luminescence was read using Varioskan LUX multimode microplate reader (Thermo Scientific). For each experimental condition, 4 replicate wells were used in each experiment, and at least 3 separate experiments for each treatment except for 15c which had 2 separate experiments. […]

[2] = test system: GFP-LC3B-RFP expressing HEK-293 cells; test: Autophagic flux, GFP signal in GFP-LC3B-RFP expressing HEK-293 cells; assay type: cell-based; conditions: for effect on autophagy (in words) / activity at 10 µM: 10 μM; for activity at 10 µM: Homo sapiens, HEK293, GFP signal percentage of DMSO control with SEM, HEK-293 cells, read-out: autophagy at 10 μM (%)
[3] = test system: PREP-catalyzed α-synuclein dimerization in N2A cells; conditions: luminescence signal percentage of DMSO control with SEM, ref Kilpeläinen et al.[16]; cited from earlier work
[4] = target: T1, purified recombinant porcine PREP (Sus scrofa, UniProt P23687); design: method as in Kilpeläinen et al.[16]; conditions: 95% CI in brackets, ref Kilpeläinen et al.[16]; cited from earlier work
T1 construct: made in house; host or cells: E. coli
T1 sequence (P23687 whole entry): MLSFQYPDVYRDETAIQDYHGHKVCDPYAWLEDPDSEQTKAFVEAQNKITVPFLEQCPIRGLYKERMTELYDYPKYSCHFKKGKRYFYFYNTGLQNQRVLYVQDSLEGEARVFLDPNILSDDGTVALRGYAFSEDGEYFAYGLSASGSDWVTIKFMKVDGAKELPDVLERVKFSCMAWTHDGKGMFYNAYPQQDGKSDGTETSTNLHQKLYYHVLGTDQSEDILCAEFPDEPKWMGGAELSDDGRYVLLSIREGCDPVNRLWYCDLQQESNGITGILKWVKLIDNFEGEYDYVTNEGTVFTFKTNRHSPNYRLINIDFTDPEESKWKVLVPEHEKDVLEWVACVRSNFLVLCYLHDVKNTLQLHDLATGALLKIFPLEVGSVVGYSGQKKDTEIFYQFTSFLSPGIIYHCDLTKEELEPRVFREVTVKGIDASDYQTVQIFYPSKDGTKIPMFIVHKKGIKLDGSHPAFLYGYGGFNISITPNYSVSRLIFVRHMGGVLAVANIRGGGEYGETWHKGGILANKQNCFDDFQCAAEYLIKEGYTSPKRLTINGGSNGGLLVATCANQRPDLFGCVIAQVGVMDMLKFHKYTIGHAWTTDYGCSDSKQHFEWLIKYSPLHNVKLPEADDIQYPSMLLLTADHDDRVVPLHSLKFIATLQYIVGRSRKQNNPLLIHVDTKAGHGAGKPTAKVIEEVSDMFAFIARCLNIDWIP

[5] = test system: GFP-LC3B-RFP expressing HEK-293 cells; design: method as in Kilpeläinen et al.[15]; conditions: GFP signal percentage of DMSO control with SEM, ref Kilpeläinen et al.[15]; cited from earlier work

| SMILES | decrease of aSyn dimerization compared to DMSO control [1] [%] | effect on autophagy (in words) [2] | activity at 10 µM ([2]; 24 h) [%] | α-synuclein dimerization at 10 μM (%) [3] | decrease in autophagic flux assay GFP signal compared to DMSO control ([2]; 10 µM, 24 h, Figure S1B, % decrease) [%] | IC50 [4] [nM] | autophagy at 10 μM (%) [5] |
| --- | --- | --- | --- | --- | --- | --- | --- |
| O=C(CCCc1ccccc1)N1CCC[C@H]1C(=O)N1CCC[C@H]1c1nnn[nH]1 [Compound 1a] | 23 | no significant activity | 92 | 82 ^e (6.8) % |  |  |  |
| C[C@H](NC(=O)CCCc1ccccc1)C(=O)N1CCC[C@H]1c1nnn[nH]1 [Compound 1b] | 25 | effective at inducing autophagy | 71 | 75 ^e (4.9) % | 29 |  |  |
| O=C(CCCc1ccccc1)NCC(=O)N1CCC[C@H]1c1nnn[nH]1 [Compound 1e] |  | no significant activity | 90 | 77 ^e (6.2) % |  | 210000 |  |
| N#C[C@@H]1CCCN1C(=O)[C@@H]1CCCN1C(=O)CCCc1ccccc1 [KYP-2047] |  |  |  |  |  |  | 89 ^d (3.4) % |
